Assay results as given in patent US12433549B1, “Molecular imaging of the cochlea” (University of South Florida, priority 2023, dated 2025).

Experiments:
[1] = Ex vivo SPECT-CT imaging and radioactivity measurements (gamma spectroscopy) of dissected cochleae and body tissues; type: in vivo, CBA/CaJ mice
Description: For further confirmation, a pair of cochleae from a single mouse were dissected and ex vivo measurements (SPECT-CT image and radioactivity measurements-gamma spectroscopy) were carried out. […] Mean intensity and total photons were calculated from both the cochleae SPECT images. […] Moreover, energy spectra were measured using a BioDEx ion chamber and both cochleae had the same spectra, with the peak energy around 68 KeV—same as ^201Tl energy peak (FIG. 6e). These ex vivo measurements further confirm the equal distribution of ^201Tl for both inner ears.
In addition, the radiation signal was measured from various body parts, in comparison to the cochlea. The measurements were calculated per gm of tissue (specific activity) to make comparisons among various tissues and specific activities were further normalized with brain specific activity.
At the end of the imaging session, animals were sacrificed and ex vivo experiments were carried out in which radiation signals were measured from various body regions, including the brain and cochlea. A pair of cochleae were dissected and ex vivo measurements were done using both SPECT-CT imaging as well as radioactivity measurements (BioDex 500 ion chamber; gamma spectroscopy). Images were reconstructed from SPECT-CT data as per the same algorithms and protocols used for the in-vivo experiments.

[2] = In vivo SPECT-CT imaging after intravenous tail vein injection of 201Tl; design: species or system CBA/CaJ mice
Description: To test whether or not 201Tl can pass through the cochlear intrastrial fluid blood barrier, so as to image K^+ in a bony structure like the cochlea using SPECT techniques, in vivo experiments were performed with CBA/CaJ mice. Young adult mice were injected with TlCl radioactive solution intravenously with a dose of ˜400 μCi/animal in the tail vein. The Siemens Inveon® multimodality microPET/SPECT/CT platform was used (mouse brain pinhole collimator with a total of 12 projections) to image the brain, cochlea and whole body. CT imaging was also carried out for anatomical referencing. […] One animal was imaged for five continuous days, and as expected, the SPECT signal decreased over that time period in the cochlea and other body parts.
The region of interest (ROI) was drawn for the cochlea using anatomical images from the CT scans. Similarly, radiation signals (mean image intensity) from the two sides (left and right cochleae) were equal (FIG. 4b), indicating symmetrical absorption of the ^201Tl for the peripheral auditory system (cochlea). […] This observation (^201Tl maximum accumulation in the kidney) was consistent with the reported literature as ^201Tl is known to maximally accumulate there 17,18
After baseline phantom in vitro experiments were completed, in vivo imaging experiments were conducted using young adult CBA/CaJ mice (2-3 months old, n=6, 3 females and 3 males) to determine whether 201Tl can pass through the cochlear intrastrial fluid/blood barrier and if the bony cochlea can be imaged using SPECT. Each mouse was injected with approximately 400 μCi ^201Tl radiation into tail veins through a catheter. Similar to the in vitro phantom experiments, a total of 12 projections over a 360 arc were used to collect the images. During the imaging data collection, animals were under gas anesthesia (1-2% isoflurane) in an air-warmed imaging chamber (Harvard Apparatus, Cambridge, MA) to keep body temperature constant at 37° C., and the breathing rate and pattern were continuously monitored. For anatomical referencing of the cochlea, CT imaging was also conducted in conjunction with SPECT. The region of Interest (ROI) was drawn with the help of the CT referencing. Images were reconstructed using maximum-likely-hood expectation maximization (MLEM) algorithm, and finally, 3-D images were reconstructed with scattering and attenuation corrections.

In the case of [Cl][201Tl] [^201Tl, Thallium-201], the “Mean intensity and total photons, cochlea 1 vs cochlea 2” value ([1]; ex vivo SPECT-CT of a dissected pair of cochleae from a single mouse) is reported as “no quantitative difference”, the “Specific activity (per gm of tissue, normalized to brain) of the cochlea compared with other body parts” value ([1]; ex vivo radioactivity measurements) is reported as “highest signal among most body parts, except kidney” and the “Cochlear radioactivity signal relative to brain” value ([1]; ex vivo, gamma spectroscopy of body tissues) is reported as 2.2 times. For the same compound, the “Sex difference in cochlear SPECT signal (mean image intensity)” value ([2]; 3 males vs 3 females) was “no sex difference”, the “Time after injection at which SPECT radiation signals were observed from the cochlea” value ([2]; first scan after i.v. injection) was “within minutes” and the “Radiation signals (mean image intensity), left vs right cochleae” value ([2]; in vivo SPECT) was “equal”. For the same compound, the “Average cochlear SPECT signal relative to brain signal” value ([2]; in vivo SPECT, ROI drawn with CT, ~400 μCi/animal i.v. tail vein) was “about two”, the “Entry of the radiotracer into the bony cochlea” value ([2]; in vivo SPECT-CT of mouse cochlea) was “can enter the bony cochlea” and the “Change of SPECT signal in the cochlea and other body parts over time” value ([2]; one animal imaged for five continuous days) was “decreased”. The “Site of maximum accumulation, whole body SPECT imaging” value ([2]; whole body SPECT, ~400 μCi/animal i.v.) was “kidney”.
